Common to all, as to experiment: DTP human tumour cell line panel, 48 h
The subject of experiment [1] is BT-549.
In experiment [2] the test system is CAKI-1.
In experiment [3] the test system is DU-145.
Experiment [4] relates to EKVX.
Experiment [5] has as its system HCT-116.
In experiment [6] the test system is HL-60.
For experiment [7], the system named is HT-29.
The subject of experiment [8] is Hs-578T.
For experiment [9], the system named is K562.
Experiment [10] has as its system KM12.
Experiment [11] has as its system M14.
In experiment [12] the test system is MCF7.
The subject of experiment [13] is MOLT-4.
Experiment [14] deals with NCI-H226.
The test system of experiment [15] is OVCAR-5.
Experiment [16] deals with SK-MEL-2.
Experiment [17] deals with SNB-19.
Experiment [18] deals with TK-10.
In experiment [19] the test system is UACC-62.
Experiment [20] relates to NCI/ADR-RES.

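Five concentrations, 48 hours, 96-well plates. GI50 is the concentration that inhibits growth by half.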 Active and inactive are the calls of the source. Cut-off read from the data, not from the text of the source: active = GI50 up to about 1.1 µM and inactive = higher. Some results are limits rather than exact numbers.

As for `COC(=O)[C@@H]1C[C@H]2OC(=O)CC[C@]2(C)O[C@H]1[C@H]1O[C@@](C)(O)CCC[C@H]1C`, the GI50 is > 50 µM (inactive) in experiment [1]; > 50 µM (inactive) in [2]; > 50 µM (inactive) in [3]; > 50 µM (inactive) in experiment [4]; > 50 µM (inactive) in experiment [5]; 8.95 µM (inactive) in experiment [6]. Further, the GI50 in experiment [7], in experiment [8], in experiment [9], in experiment [10], in experiment [11] and in experiment [12] was > 50 µM (inactive) in each case. Further, the GI50 in [13], in [14], in [15], in experiment [16], in experiment [17] and in [18] was > 50 µM (inactive) throughout. Moreover, in [19], the GI50 was > 50 µM (inactive).
In the case of `Cc1cc(NS(=O)(=O)c2ccc(NC(NC(=O)OC(C)C)(C(F)(F)F)C(F)(F)F)cc2)nc(C)n1`, the GI50 in experiment [2], in experiment [3], in experiment [4], in experiment [5], in [6] and in [7] was > 100 µM (inactive) in each case. For the same molecule, the GI50 in [8], in experiment [9], in [10], in experiment [11], in experiment [12] and in experiment [13] was > 100 µM (inactive) in each case. Moreover, the GI50 in experiment [14], in [20], in [15], in experiment [17], in experiment [18] and in experiment [19] was > 100 µM (inactive) in each case.
Turning to `COc1cc2c[n+](C)c3c4cc(OC)c(OCc5ccccc5)cc4c(OCc4ccccc4)cc3c2cc1OC`, the GI50 was 2.21 µM (inactive) in [1]; 35.2 µM (inactive) in experiment [2]; 11.5 µM (inactive) in [3]; 38.5 µM (inactive) in experiment [4]; 3.76 µM (inactive) in [5]; 3.61 µM (inactive) in [7]. The GI50 in experiment [9] was 1.28 µM (inactive); in experiment [10] it was 10.5 µM (inactive); in [11], 9.66 µM (inactive); in experiment [12] it was 3.93 µM (inactive); in experiment [13], 2.54 µM (inactive); in experiment [14], 2.26 µM (inactive). For the same molecule, the GI50 in experiment [20] is 84.7 µM (inactive); in experiment [15], > 29.6 µM (inactive); in [16], 2.1 µM (inactive); in experiment [17], 0.923 µM (active); in experiment [18] it was 23.3 µM (inactive); in experiment [19], 2.6 µM (inactive).
Consider `NS(=O)(=O)c1nnc(NS(=O)(=O)c2ccc([N+](=O)[O-])cc2)s1`, for which the GI50 in experiment [1], in experiment [2], in experiment [3], in [4], in [5] and in experiment [6] was > 100 µM (inactive) each time. Besides, the GI50 in experiment [7] was > 100 µM (inactive); in [9], 33.6 µM (inactive); in experiment [10], > 100 µM (inactive); in experiment [11], > 100 µM (inactive); in experiment [12] it was > 100 µM (inactive); in [13], 26.3 µM (inactive). The GI50 in [14], in [20], in experiment [15], in experiment [16], in experiment [18] and in [19] was > 100 µM (inactive) each time.
In the case of `NC(CCCCNC(=O)OCc1ccccc1)C(=O)NC(CCCCNC(=O)OCc1ccccc1)C(=O)ON1C(=O)CCC1=O` (stereo not drawn), the GI50 in [1], in experiment [4], in experiment [5], in experiment [6], in experiment [7] and in [8] was > 100 µM (inactive) throughout. For the same molecule, the GI50 in [9], in experiment [10], in experiment [11], in experiment [12], in experiment [13] and in [14] was > 100 µM (inactive) throughout. For the same molecule, the GI50 in [15], in experiment [16], in [17], in [18] and in experiment [19] was > 100 µM (inactive) throughout.
With `CC(C)(C)[Si](C)(C)OCC1CCC(n2cnc3c(=O)[nH]cnc32)O1` (stereo not drawn), the GI50 in experiment [2] was > 100 µM (inactive); in [3], > 100 µM (inactive); in [4], > 100 µM (inactive); in experiment [5], > 100 µM (inactive); in [6], 74.8 µM (inactive); in [7] it was > 100 µM (inactive). The GI50 in experiment [8] was 58.2 µM (inactive); in experiment [9], 85.7 µM (inactive); in experiment [10], > 100 µM (inactive); in [11] it was > 100 µM (inactive); in experiment [12] it was > 100 µM (inactive); in experiment [13] it was 30.2 µM (inactive). The GI50 in experiment [14] is 77.6 µM (inactive); in experiment [20] it was 45.6 µM (inactive); in experiment [15], > 100 µM (inactive); in experiment [16], > 100 µM (inactive); in [17] it was > 100 µM (inactive); in experiment [18], > 100 µM (inactive). In addition, the GI50 in experiment [19] was 35.7 µM (inactive).
As to `C=C1c2nc3ccccc3n2C=C(c2ccccc2)N1c1ccc(C)cc1`, the GI50 in [1] is 49.9 µM (inactive); in [2], 32.8 µM (inactive); in [3], > 100 µM (inactive); in experiment [4], > 100 µM (inactive); in experiment [5], 36.9 µM (inactive); in [9], 31.5 µM (inactive). Also, the GI50 in [10] is 22.7 µM (inactive); in experiment [11] it was > 100 µM (inactive); in [12], 29.5 µM (inactive); in experiment [13], 20.6 µM (inactive); in experiment [14], 68.7 µM (inactive); in experiment [20], 37.7 µM (inactive). Besides, the GI50 is > 100 µM (inactive) in experiment [15]; > 100 µM (inactive) in experiment [16]; > 100 µM (inactive) in experiment [17]; 79.3 µM (inactive) in [18]; 64.4 µM (inactive) in [19].
As to `O=S(=O)(c1ccccc1)N1CCCC(c2ccccc2)CC1` (stereo not drawn), the GI50 is 58.3 µM (inactive) in experiment [1]; > 100 µM (inactive) in experiment [2]; > 100 µM (inactive) in experiment [3]; 38.3 µM (inactive) in experiment [5]; 9.75 µM (inactive) in experiment [6]; 15.1 µM (inactive) in [7]. Besides, the GI50 is 19.4 µM (inactive) in [9]; 41 µM (inactive) in experiment [10]; > 100 µM (inactive) in experiment [11]; 24 µM (inactive) in experiment [12]; 15.2 µM (inactive) in experiment [13]; 52.7 µM (inactive) in experiment [14]. Moreover, the GI50 in experiment [20] is 38 µM (inactive); in experiment [15], > 100 µM (inactive); in [16], 45.9 µM (inactive); in [17], 93.8 µM (inactive); in [18], 51.9 µM (inactive); in experiment [19], > 100 µM (inactive).
Take `CCCCS/C(=C(/C#N)C(N)=O)c1cc2c([nH]1)CCCC2`: the GI50 in experiment [1] was 11.1 µM (inactive); in experiment [2] it was 14 µM (inactive); in experiment [3], 12.1 µM (inactive); in experiment [4] it was 11.2 µM (inactive); in experiment [5], 11 µM (inactive); in experiment [6], 3.67 µM (inactive). The GI50 in [7] was 4.69 µM (inactive); in [9], 3.68 µM (inactive); in experiment [10], 5.78 µM (inactive); in experiment [12] it was 10.3 µM (inactive); in experiment [13], 10 µM (inactive); in [14], 15.1 µM (inactive). In addition, the GI50 in experiment [20] is 8 µM (inactive); in [15] it was 29 µM (inactive); in experiment [16], 12.1 µM (inactive); in experiment [17], 19.1 µM (inactive); in experiment [18], 15.3 µM (inactive); in experiment [19], 6.52 µM (inactive).
Take `O=[N+]([O-])c1ccc(/C=N/Nc2nc3ccccc3[nH]2)o1`: the GI50 in [1] is 15 µM (inactive); in [2] it was 15.1 µM (inactive); in experiment [3], 13.9 µM (inactive); in experiment [4] it was 22.8 µM (inactive); in experiment [5] it was 14.8 µM (inactive); in experiment [6] it was 1.31 µM (inactive). Also, the GI50 was 19.5 µM (inactive) in experiment [7]; 33.3 µM (inactive) in experiment [8]; 13.1 µM (inactive) in experiment [9]; 10.6 µM (inactive) in experiment [10]; 12.7 µM (inactive) in experiment [11]; 11.2 µM (inactive) in [13]. Besides, the GI50 in experiment [14] is 22.2 µM (inactive); in experiment [20], 24.6 µM (inactive); in [15], 23.1 µM (inactive); in experiment [17] it was 26.5 µM (inactive); in [18], 19.2 µM (inactive).
As for `O=C(NC1CCN(Cc2ccccc2)CC1)c1cccc(I)c1`, the GI50 in [1] is 42.5 µM (inactive); in experiment [2] it was 19.7 µM (inactive); in experiment [3], 72.3 µM (inactive); in experiment [4], 45.2 µM (inactive); in [5], 15.3 µM (inactive); in experiment [6], 34.4 µM (inactive). Moreover, the GI50 in experiment [7] was 19.5 µM (inactive); in experiment [8], 29 µM (inactive); in [9] it was 22.6 µM (inactive); in experiment [10], 16.5 µM (inactive); in [11], 17.2 µM (inactive); in experiment [13], 13.9 µM (inactive). Also, the GI50 in experiment [14] was 31.6 µM (inactive); in experiment [20], 31.8 µM (inactive); in experiment [15], 30.3 µM (inactive); in experiment [16] it was 18.7 µM (inactive); in [17] it was 35 µM (inactive); in [18], 22.8 µM (inactive). The GI50 in experiment [19] is 20.5 µM (inactive).

What is called GI50 is the concentration giving 50% growth inhibition.

These data come from ChEMBL document CHEMBL1201862, “PubChem BioAssay data set” (2004).
